Here are results for 12 compounds from patent publication EP0343268A1, “Pharmaceutical composition and process for preparing the same” (BIOGAL GYOGYSZERGYAR, priority 1988, dated 1989).

For data set [1] the following is noted: in the presence of sulfhydryl-containing compounds, particularly acetylcysteine; cited from earlier work.
The subject of data set [2] is external otitis. As to the kind of experiment: Single-ingredient treatment of patients with external otitis. In kind it is in vivo. Particulars: 1% solution. The source says: (§1) Several compositions according to the invention were also studied with omitting one active ingredient of the composition in order to support the progressive character of the multi-active-component type composition according to the invention. These experiments led to the following results.

For data set [3], the system named is chronic mesotympanic otitis. As to the kind of experiment: Single-ingredient treatment of patients with chronic mesotympanic otitis. The format is in vivo. The note with it: 1% solution.
Text: as §1

The conditions of data set [4]: cited from earlier work.
The conditions of data set [5]: cited from earlier work. The source holds these as a separate data set.
Data set [6] in a line: Single-ingredient treatment of patients (steroid alone; sulfhydryl compound solution alone). In kind it is in vivo. The note with it: aqueous solutions (pH 7.0±0.2) of 3 to 19%, preferably 5 to 15%.
Text: as §1
An objective improvement was observed only in those cases involving large eardrum defects, strong hyperaemia and significant mucous membrane hypertrophy of the tympanic cavity as well as in the cases of external eczematous otitis (otitis externa ekzematosa).
The dilution of the discharge was not observed during the use,however, the amount of the discharge was somewhat reduced in spite of the decrease of its viscosity. The discharge, which was coherent and mucous in character, rather took the form of a precipitate under effect of the treatment by an acetylcysteine solution.

The conditions of data set [7]: cited from earlier work. This is another data set of the same source.
Data set [8] has as its system several gram-positive and gram-negative bacteria such as Pseudomonas aeruginosa. Particulars: in vitro conditions; cited from earlier work.
Data set [9] in a line: In vitro mucolytic effect on ear discharges.
Data set [10] has as its system pathogenic microorganisms occurring in the discharges of patients suffering from chronic otitis (otitis media chronica). In words: Treatment of ear discharges by antibacterial agents (sensitivity of the pathogens). The format is cell-based. Here is the method:
In the Department for Qtorhinolaryngology of the Medical University of Debrecen, adult and child patients were examined to identify the types of pathogenic microorganisms occurring in the discharges of patients suffering from chronic otitis (otitis media chronica); the discharges of 510 patients were analyzed for the bacterial infection.

Setting [11] is: number of cases, total number of the examinations 510.

Some results are limits rather than exact numbers.

For the compound `CC[C@H]1OC(=O)[C@H](C)[C@@H](O[C@H]2C[C@@](C)(OC)[C@@H](O)[C@H](C)O2)[C@H](C)[C@@H](O[C@@H]2O[C@H](C)C[C@H](N(C)C)[C@H]2O)[C@](C)(O)C[C@@H](C)C(=O)[C@H](C)[C@@H](O)[C@]1(C)O` [Erythromycin], in [1], the “absorption from the stomach” value was “not disadvantageously influenced”.
Regarding `NC[C@H]1O[C@H](O[C@H]2[C@H](O)[C@@H](O[C@H]3O[C@H](CO)[C@@H](O)[C@H](N)[C@H]3O)[C@H](N)C[C@@H]2N)[C@H](N)C[C@@H]1O` [Tobramycin], the “substantial improvement of the pathological processes” value in data set [2] is no more than 40%; in data set [3] it was “about 60 % of patients”. Also, the “absorption from the stomach” value in data set [1] is “not disadvantageously influenced”.
Take `CC(=O)N[C@@H](CS)C(=O)O` [acetylcysteine, N-acetyl-L-cysteine]: the LD₅₀ in dogs in data set [4] was 1000 mg/kg of body-weight. In addition, the LD₅₀ in mice in [5] is listed as 3000 mg/kg of body-weight. In addition, in [6], the inflammatory symptomes result is “moderated” and the “viscosity of the discharge” value was “advantageously influenced”. For the same compound, the LD₅₀ in rats in data set [7] was 6000 mg/kg of body-weight. Moreover, in data set [8], the “effect with several antibiotics” value is recorded as “synergistic effect”.
For `CC1(C)S[C@@H]2[C@H](NC(=O)[C@H](N)c3ccc(O)cc3)C(=O)N2[C@H]1C(=O)O` [amoxicillin], the “absorption from the stomach” value in data set [1] is “not disadvantageously influenced”.
With `N[C@@H](CSCC(=O)O)C(=O)O` [carbocysteine], the mucolytic effect entry in data set [9] is given as “a mucolytic effect can also be shown”.
Same read-out and setting: for `O=C(O)C(S)C(S)C(=O)O` (stereo not shown) [dimercaptosuccinate] the value was “a mucolytic effect can also be shown”; for `O[C@H](CS)[C@@H](O)CS` [dithioerythritol], “a mucolytic effect can also be shown”.
For `C[C@H]1c2cccc(O)c2C(O)=C2C(=O)[C@]3(O)C(O)=C(C(N)=O)C(=O)[C@@H](N(C)C)[C@@H]3[C@@H](O)[C@@H]21` [doxycyclin], the “absorption from the stomach” value in data set [1] is on record as “not disadvantageously influenced”.
Regarding `N[C@@H](CCC(=O)N[C@@H](CS)C(=O)NCC(=O)O)C(=O)O` [glutathione], the mucolytic effect entry in data set [9] is “a mucolytic effect can also be shown”.
On to `CC(C)(CO)[C@@H](O)C(=O)NCCC(=O)NCCS` [pantetheine], for which the mucolytic effect entry in data set [9] is given as “a mucolytic effect can also be shown”.
On to Neomycin, for which the “absorption from the stomach” value in [1] is “not disadvantageously influenced”.
On to Penicillin, for which, in [10] (setting [11]), the “A = therapeutically active (sensitive)” value came out at 67, the “M = moderately active” value was 22 and the “R = inactive (resistant)” value was 218. Moreover, in [10] (share of examined cases moderately active or active), the “Act. = activity %” value is 29.4%.
